# Assay results from patent US20250197387A1, “BCL-XL DEGRADERS AND USES THEREOF” (Kymera Therapeutics, Inc., priority 2021, published 2025).
# Legend:
# Format in all cases: cell-based
# MOLT-4 cells = experiment: CTG (CellTiter-Glo) cell viability assay, MOLT-4; conditions: Homo sapiens, MOLT-4, 72 h, 3 day incubation, read-out: CTG Cell Viability Assay - MOLT-4 3 day: Average external-IC50
# Summary of the method: (§1)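 MOLT-4 and Caki-2 cells were seeded at 10,000 per well and treated with a 9-point, 1:3 dilution series from 10 μM top concentration (0.2% DMSO). After 3 days at 37 °C, 5% CO2, viability was read by CellTiter-Glo luminescence and IC50 fitted by three-parameter logistic.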
# Caki-2 cells = experiment: CTG (CellTiter-Glo) cell viability assay, Caki-2; conditions: Homo sapiens, 72 h, 3 day incubation, read-out: CTG Chempartner - Caki-2 3 day: Average external-IC50
# Summary of the method: as §1
# BCL-XL [1] = biological target: T1, BCL-XL (Homo sapiens, UniProt Q07817); experiment: BCL-XL degradation assay, western blot in MOLT-4 cells, 16 h; conditions: western blot, MOLT-4 cells, 16 h; for Dmax: read-out: Bcl-xL WB in MOLT-4 degradation 16 h: Average Dmax %; for DC50: read-out: Bcl-xL WB in MOLT-4 degradation 16 h: Mean external-Abs DC50
# T1 construct: endogenous in cells; host or cells: MOLT-4
# Summary of the method: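 MOLT-4 cells treated with compounds at 0.02-10 μM final for 16 hr at 37° C; lysates analysed by western blot with anti-BCL-xL, beta-actin and GAPDH loading controls, infrared imaging and densitometry; DC50 and Dmax % reported as letter codes.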
# BCL-XL [2] = biological target: T1, BCL-XL; experiment: Bcl-xL ELISA degradation in MOLT-4 cells, 6 h; conditions: for DC50: read-out: Bcl-xL ELISA in MOLT-4 degradation 6 h: Mean external-Abs DC50
# Procedure: The letter codes for BCL-XL DC50 include: A (<0.01 μM); B (0.01-0.1 μM); C (>[…]); D (>0.5-1.0 μM); and E (>1.0 μM). The letter codes for Dmax % include A (>75%); B (50 to 75%); C (<50%).
# T1 sequence (Q07817 whole entry): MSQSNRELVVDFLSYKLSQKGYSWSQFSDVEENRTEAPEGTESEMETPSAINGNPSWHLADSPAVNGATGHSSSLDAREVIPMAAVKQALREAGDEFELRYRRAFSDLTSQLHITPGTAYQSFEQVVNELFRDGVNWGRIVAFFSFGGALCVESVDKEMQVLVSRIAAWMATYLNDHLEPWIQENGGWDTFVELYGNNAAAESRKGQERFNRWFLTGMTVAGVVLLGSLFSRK
SMILES,IC50 (MOLT-4 cells),IC50 (Caki-2 cells),Dmax (BCL-XL [1]),DC50 (BCL-XL [1]),Dmax (BCL-XL [2]),DC50 (BCL-XL [2])
Cc1cc(N(C)c2ccc(-c3cnn(CC4CCCCC4)c3C)c(C(=O)NS(=O)(=O)CCCCC(=O)N[C@H](C(=O)N3C[C@H](O)C[C@H]3C(=O)N[C@@H](C)c3ccc(-c4scnc4C)cc3)C(C)(C)C)n2)nnc1Nc1nc2ccccc2s1 [I-353],1000 to 3000 nM,> 10000 nM,> 75%,10 to 100 nM,> 75%,100 to 500 nM
Cc1ncsc1-c1ccc([C@H](C)NC(=O)[C@@H]2C[C@@H](O)CN2C(=O)[C@@H](NC(=O)N2CC3(C2)CN(c2ccc(S(=O)(=O)NC(=O)c4nc(N5CCc6cccc(C(=O)Nc7nc8ccccc8s7)c6C5)ccc4-c4cnn(CC5CCCCC5)c4C)cc2)C3)C(C)(C)C)cc1 [I-196],100 to 1000 nM,1000 to 10000 nM,50 to 75%,< 10 nM,–,–
Cc1ncsc1-c1ccc([C@H](C)NC(=O)[C@@H]2C[C@@H](O)CN2C(=O)[C@@H](NC(=O)CCc2ccc(S(=O)(=O)NC(=O)c3nc(N4CCc5cccc(C(=O)Nc6nc7ccccc7s6)c5C4)ccc3-c3cnn(CC4CCCCC4)c3C)cc2)C(C)(C)C)cc1 [I-123],< 100 nM,1000 to 10000 nM,> 75%,< 10 nM,> 75%,10 to 100 nM
Cc1ncsc1-c1ccc(CNC(=O)[C@@H]2C[C@@H](O)CN2C(=O)[C@@H](NC(=O)CCOCCOCCOCCOCCOCCOCC#Cc2ccc(OCCCc3sc(N4CCc5cccc(C(=O)Nc6nc7ccccc7s6)c5C4)nc3C(=O)O)cc2)C(C)(C)C)cc1 [I-383],100 to 1000 nM,1000 to 10000 nM,> 75%,10 to 100 nM,> 75%,10 to 100 nM
Cc1ncsc1-c1ccc([C@H](C)NC(=O)[C@@H]2C[C@@H](O)CN2C(=O)[C@@H](NC(=O)c2ccc(CCS(=O)(=O)NC(=O)c3nc(N4CCc5cccc(C(=O)Nc6nc7ccccc7s6)c5C4)ccc3-c3cnn(CC4CCCCC4)c3C)cc2)C(C)(C)C)cc1 [I-143],< 100 nM,1000 to 10000 nM,> 75%,< 10 nM,–,–
Cc1ncsc1-c1ccc(CNC(=O)[C@@H]2C[C@@H](O)CN2C(=O)[C@@H](NC(=O)C2(F)CC2)C(C)(C)C)c(OCCC2CCN(CC[C@H](CSc3ccccc3)Nc3ccc(S(=O)(=O)NC(=O)c4ccc(N5CCN(CC6=C(c7ccc(Cl)cc7)CCC(C)(C)C6)CC5)cc4)cc3S(=O)(=O)C(F)(F)F)CC2)c1 [I-183],< 100 nM,> 10000 nM,> 75%,< 10 nM,50 to 75%,100 to 500 nM
Cc1ncsc1-c1ccc([C@H](C)NC(=O)[C@@H]2C[C@@H](O)CN2C(=O)[C@H](NC(=O)CCCCCCCS(=O)(=O)NC(=O)c2nc(N3CCc4cccc(C(=O)Nc5nc6ccccc6s5)c4C3)ccc2-c2cnn(CC(C)C)c2C)C(C)(C)C)cc1 [I-179],100 to 1000 nM,> 10000 nM,> 75%,10 to 100 nM,> 75%,10 to 100 nM
Cc1ncsc1-c1ccc(CNC(=O)[C@@H]2C[C@@H](O)CN2C(=O)[C@@H](NC(=O)C2(F)CC2)C(C)(C)C)c(OCCCCCS(=O)(=O)NC(=O)c2nc(N3CCc4cccc(C(=O)Nc5nc6ccccc6s5)c4C3)ccc2-c2cnn(CC34CC5CC(CC(C5)C3)C4)c2C)c1 [I-121],< 100 nM,100 to 1000 nM,> 75%,< 10 nM,> 75%,10 to 100 nM
Cc1ncsc1-c1ccc([C@H](C)NC(=O)[C@@H]2C[C@@H](O)CN2C(=O)[C@@H](c2cc(OC3CCN(CCCS(=O)(=O)NC(=O)c4nc(N5CCc6cccc(C(=O)Nc7nc8ccccc8s7)c6C5)ccc4-c4cnn(CC5CCCCC5)c4C)CC3)no2)C(C)C)cc1 [I-178],100 to 1000 nM,> 10000 nM,> 75%,10 to 100 nM,50 to 75%,10 to 100 nM
Cc1ncsc1-c1ccc([C@H](C)NC(=O)[C@@H]2C[C@@H](O)CN2C(=O)[C@@H](NC(=O)CCCCCCNC(=O)c2nc(N3CCc4cccc(C(=O)Nc5nc6ccccc6s5)c4C3)ccc2-c2cnn(CC3CCCCC3)c2C)C(C)(C)C)cc1 [I-96],100 to 1000 nM,> 10000 nM,> 75%,10 to 100 nM,50 to 75%,10 to 100 nM
Cc1ncsc1-c1ccc(CNC(=O)[C@@H]2C[C@@H](O)CN2C(=O)[C@@H](NC(=O)CCCCCC(=O)N2CCN(CC[C@H](CSc3ccccc3)Nc3ccc(S(=O)(=O)NC(=O)c4ccc(N5CCN(CC6=C(c7ccc(Cl)cc7)CCC(C)(C)C6)CC5)cc4)cc3S(=O)(=O)C(F)(F)F)CC2)C(C)(C)C)cc1 [I-389],< 100 nM,1000 to 10000 nM,> 75%,10 to 100 nM,< 50%,> 1000 nM
Cc1ncsc1-c1ccc(CNC(=O)[C@@H]2C[C@@H](O)CN2C(=O)[C@@H](NC(=O)C2(F)CC2)C(C)(C)C)c(OCCN2CCN(C(=O)c3nc(N4CCc5cccc(C(=O)Nc6nc7ccccc7s6)c5C4)ccc3-c3cnn(CC4CCCCC4)c3C)CC2)c1 [I-201],100 to 1000 nM,> 10000 nM,> 75%,10 to 100 nM,–,–
Cc1ncsc1-c1ccc([C@H](CC(=O)NCCCCCNC(=O)c2nc(N3CCc4cccc(C(=O)Nc5nc6ccccc6s5)c4C3)ccc2-c2cnn(CC3CCCCC3)c2C)NC(=O)[C@@H]2C[C@@H](O)CN2C(=O)[C@@H](NC(=O)C2(F)CC2)C(C)(C)C)cc1 [I-199],100 to 1000 nM,> 10000 nM,> 75%,10 to 100 nM,–,–
C#Cc1ccc([C@H](C)NC(=O)[C@@H]2C[C@@H](O)CN2C(=O)[C@@H](NC(=O)CCCCCC(=O)N2CCN(CC[C@H](CSc3ccccc3)Nc3ccc(S(=O)(=O)NC(=O)c4ccc(N5CCN(CC6=C(c7ccc(Cl)cc7)CCC(C)(C)C6)CC5)cc4)cc3S(=O)(=O)C(F)(F)F)CC2)C(C)(C)C)cc1 [I-388],< 100 nM,> 10000 nM,> 75%,10 to 100 nM,50 to 75%,100 to 500 nM
C#Cc1ccc(CNC(=O)[C@@H]2C[C@@H](O)CN2C(=O)[C@@H](NC(=O)CCCCS(=O)(=O)NC(=O)c2nc(N(C)c3cc(C)c(Nc4nc5ccccc5s4)nn3)ccc2-c2cnn(CC3CCCCC3)c2C)C(C)(C)C)cc1 [I-345],1000 to 3000 nM,> 10000 nM,> 75%,100 to 500 nM,50 to 75%,100 to 500 nM
Cc1ncsc1-c1ccc(CNC(=O)[C@@H]2C[C@@H](O)CN2C(=O)[C@@H](NC(=O)CCCS(=O)(=O)NC(=O)c2nc(N3CCc4cccc(C(=O)Nc5nc6cccnc6s5)c4C3)ccc2-c2cnn(CC3CCCCC3)c2C)C(C)(C)C)cc1 [I-351],> 3000 nM,> 10000 nM,50 to 75%,100 to 500 nM,> 75%,100 to 500 nM
Cc1ncsc1-c1ccc(CNC(=O)[C@@H]2C[C@@H](O)CN2C(=O)[C@@H](NC(=O)C2(F)CC2)C(C)(C)C)c(OCCCCCS(=O)(=O)NC(=O)c2nc(N3CCc4cccc(C(=O)Nc5nc6ccccc6s5)c4C3)ccc2-c2cnn(CC3CCCCC3)c2C)c1 [I-177],< 100 nM,1000 to 10000 nM,> 75%,< 10 nM,> 75%,10 to 100 nM
Cc1cc([C@@H](C(=O)N2C[C@H](O)C[C@H]2C(=O)NCc2ccc(-c3scnc3C)cc2OCCCCCCNC(=O)c2nc(N3CCc4cccc(C(=O)Nc5nc6ccccc6s5)c4C3)ccc2-c2cnn(CC3CCCCC3)c2C)C(C)C)on1 [I-198],< 100 nM,> 10000 nM,> 75%,10 to 100 nM,–,–
Cc1ncsc1-c1ccc([C@H](C)NC(=O)[C@@H]2C[C@@H](O)CN2C(=O)[C@@H](NC(=O)CCCCCCCS(=O)(=O)NC(=O)c2nc(N3CCc4cccc(C(=O)Nc5nc6cccnc6s5)c4C3)ccc2-c2cnn(CC34CC5CC(CC(C5)C3)C4)c2C)C(C)(C)C)cc1 [I-141],< 100 nM,1000 to 10000 nM,> 75%,< 10 nM,–,–
Cc1ncsc1-c1ccc([C@H](C)NC(=O)[C@@H]2C[C@@H](O)CN2C(=O)[C@@H](NC(=O)CCCCCCCCC(=O)N(C)CC#Cc2ccc(OCCCc3sc(N4CCc5cccc(C(=O)Nc6nc7ccccc7s6)c5C4)nc3C(=O)O)c(F)c2)C(C)(C)C)cc1 [I-384],100 to 1000 nM,1000 to 10000 nM,> 75%,< 10 nM,–,–
C#Cc1ccc(CNC(=O)[C@@H]2C[C@@H](O)CN2C(=O)[C@@H](NC(=O)CCCCCS(=O)(=O)NC(=O)c2nc(N(C)c3cc(C)c(Nc4nc5ccccc5s4)nn3)ccc2-c2cnn(CC34CC5CC(CC(C5)C3)C4)c2C)C(C)(C)C)cc1 [I-379],< 100 nM,> 10000 nM,–,–,> 75%,< 10 nM
Cc1cc(N(C)c2ccc(-c3cnn(CC4CCCCC4)c3C)c(C(=O)NS(=O)(=O)CCCCCC(=O)N[C@H](C(=O)N3C[C@H](O)C[C@H]3C(=O)N[C@@H](C)c3ccc(-c4scnc4C)cc3)C(C)(C)C)n2)nnc1Nc1nc2ccccc2s1 [I-120],100 to 1000 nM,> 10000 nM,> 75%,10 to 100 nM,–,–
